Test results reported in PubChem BioAssay AID2060894 (Molecular Pharmacology Branch, DTP, NCI, 2025).
pIC50: −log10 of the molar value. Several values for one entry are separate records, joined by “and”; a condition that tells them apart may be missing. Equal values may be shown once.

Tested on: K12877-001-R-J1-PDC complex spheroid viability
Assay: Anticancer human tumor K12877-001-R-J1-PDC patient-derived lung adenocarcinoma cell line growth inhibition [RAS]
Settings: for viability, T/C: stronger effect = lower value
In short: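 Multi-cell-type spheroids: tumor cells plus HUVEC endothelial cells and mesenchymal stem cells. RAS-pathway inhibitors were combined with targeted agents, each dosed in half-log steps down from clinical Cmax, or from 10 microM when Cmax was unknown.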

[1] = curve of first compound, second compound 0.0316 µM
[2] = curve of first compound, second compound 0.1 µM
[3] = curve of first compound, second compound 0.316 µM
[4] = curve of first compound, second compound 1 µM
[5] = curve of first compound, second compound 3.16 µM
[6] = curve of first compound, second compound 10 µM
[7] = second compound 0.0316 µM, first compound 0.0316 µM
[8] = second compound 0.0316 µM, first compound 0.1 µM
[9] = second compound 0.1 µM, first compound 0.0316 µM
[10] = second compound 0.1 µM, first compound 0.1 µM
[11] = second compound 0.316 µM, first compound 0.0316 µM
[12] = second compound 0.316 µM, first compound 0.1 µM
[13] = second compound 1 µM, first compound 0.0316 µM
[14] = second compound 1 µM, first compound 0.1 µM
[15] = second compound 3.16 µM, first compound 0.0316 µM
[16] = second compound 3.16 µM, first compound 0.1 µM
[17] = second compound 10 µM, first compound 0.0316 µM
[18] = second compound 10 µM, first compound 0.1 µM
[19] = second compound 0.0316 µM, first compound 0.000316 µM
[20] = second compound 0.0316 µM, first compound 0.001 µM
[21] = second compound 0.0316 µM, first compound 0.00316 µM
[22] = second compound 0.0316 µM, first compound 0.01 µM
[23] = second compound 0.1 µM, first compound 0.000316 µM
[24] = second compound 0.1 µM, first compound 0.001 µM
[25] = second compound 0.1 µM, first compound 0.00316 µM
[26] = second compound 0.1 µM, first compound 0.01 µM
[27] = second compound 0.316 µM, first compound 0.000316 µM
[28] = second compound 0.316 µM, first compound 0.001 µM
[29] = second compound 0.316 µM, first compound 0.00316 µM
[30] = second compound 0.316 µM, first compound 0.01 µM
[31] = second compound 1 µM, first compound 0.000316 µM
[32] = second compound 1 µM, first compound 0.001 µM
[33] = second compound 1 µM, first compound 0.00316 µM
[34] = second compound 1 µM, first compound 0.01 µM
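Note: spheroids exposed to agents for one week before readout.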
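Throughout, for viability, T/C: tumour cells co-cultured with HUVEC and mesenchymal stem cells in spheroids.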

`CCC(CC)c1cc(NC2CCC(N)C2)n2nccc2n1` (stereo not drawn) + C#Cc1c(F)ccc2cc(O)cc(-c3ncc4c(N5CC6CCC(C5)N6)nc(OCC56CCCN5CC(F)C6)nc4c3F)c12 showed a pIC50 [1] of 5.81, a pIC50 [2] of 5.77 and a pIC50 [3] of 5.79. For the same compound, the pIC50 [4] was 5.74, the pIC50 [5] was 5.80 and the pIC50 [6] was 5.84. It also gave a viability, T/C [7] of 89.6%, a viability, T/C [8] of 99.2% and a viability, T/C (second compound 0.0316 µM, first compound 0.316 µM) of 91.7%. For the same compound, the viability, T/C (second compound 0.0316 µM, first compound 1 µM) was 78.1%, the viability, T/C (second compound 0.0316 µM, first compound 3.16 µM) was 2.8% and the viability, T/C (second compound 0.0316 µM, first compound 10 µM) was 1.63%. It also gave a viability, T/C [9] of 107%, a viability, T/C [10] of 92.8% and a viability, T/C (second compound 0.1 µM, first compound 0.316 µM) of 103%. For the same compound, the viability, T/C (second compound 0.1 µM, first compound 1 µM) was 89.6%, the viability, T/C (second compound 0.1 µM, first compound 3.16 µM) was 2.62% and the viability, T/C (second compound 0.1 µM, first compound 10 µM) was 1.37%. It also gave a viability, T/C [11] of 114%, a viability, T/C [12] of 111% and a viability, T/C (second compound 0.316 µM, first compound 0.316 µM) of 93.4%. For the same compound, the viability, T/C (second compound 0.316 µM, first compound 1 µM) was 83.6%, the viability, T/C (second compound 0.316 µM, first compound 3.16 µM) was 3.3% and the viability, T/C (second compound 0.316 µM, first compound 10 µM) was 1.42%. The viability, T/C [13] was 102%, the viability, T/C [14] was 88.8% and the viability, T/C (second compound 1 µM, first compound 0.316 µM) was 105%. For the same compound, the viability, T/C (second compound 1 µM, first compound 1 µM) was 102%, the viability, T/C (second compound 1 µM, first compound 3.16 µM) was 2.94% and the viability, T/C (second compound 1 µM, first compound 10 µM) was 1.04%. For the same compound, the viability, T/C [15] was 109%, the viability, T/C [16] was 105% and the viability, T/C (second compound 3.16 µM, first compound 0.316 µM) was 103%. For the same compound, the viability, T/C (second compound 3.16 µM, first compound 1 µM) was 81.1%, the viability, T/C (second compound 3.16 µM, first compound 3.16 µM) was 2.74% and the viability, T/C (second compound 3.16 µM, first compound 10 µM) was 1.05%. For the same compound, the viability, T/C [17] was 102%, the viability, T/C [18] was 86.2% and the viability, T/C (second compound 10 µM, first compound 0.316 µM) was 93.3%. It also gave a viability, T/C (second compound 10 µM, first compound 1 µM) of 72.4%, a viability, T/C (second compound 10 µM, first compound 3.16 µM) of 2.41% and a viability, T/C (second compound 10 µM, first compound 10 µM) of 1.21%.

For `CC(C)n1nc(-c2ccc3oc(N)nc3c2)c2c(N)ncnc21` + C#Cc1c(F)ccc2cc(O)cc(-c3ncc4c(N5CC6CCC(C5)N6)nc(OCC56CCCN5CC(F)C6)nc4c3F)c12, the pIC50 [1] was 7.60, the pIC50 [2] was 7.58 and the pIC50 [3] was 7.57. For the same compound, the pIC50 [4] was 7.55, the pIC50 [5] was 7.59 and the pIC50 [6] was 7.59. It also gave a viability, T/C [19] of 105%, a viability, T/C [20] of 88.2% and a viability, T/C [21] of 83%. It also gave a viability, T/C [22] of 93.9%, a viability, T/C [7] of 39.8% and a viability, T/C [8] of 24.5%. For the same compound, the viability, T/C [23] was 99.2%, the viability, T/C [24] was 86.2% and the viability, T/C [25] was 82.4%. It also gave a viability, T/C [26] of 94.2%, a viability, T/C [9] of 42.7% and a viability, T/C [10] of 24%. For the same compound, the viability, T/C [27] was 97%, the viability, T/C [28] was 102% and the viability, T/C [29] was 88.1%. It also gave a viability, T/C [30] of 98.8%, a viability, T/C [11] of 42.5% and a viability, T/C [12] of 23.2%. It also gave a viability, T/C [31] of 101%, a viability, T/C [32] of 104% and a viability, T/C [33] of 91.7%. The viability, T/C [34] was 101%, the viability, T/C [13] was 44.1% and the viability, T/C [14] was 24%. It also gave a viability, T/C (second compound 3.16 µM, first compound 0.000316 µM) of 114%, a viability, T/C (second compound 3.16 µM, first compound 0.001 µM) of 93.3% and a viability, T/C (second compound 3.16 µM, first compound 0.00316 µM) of 91.7%. For the same compound, the viability, T/C (second compound 3.16 µM, first compound 0.01 µM) was 88.1%, the viability, T/C [15] was 40.9% and the viability, T/C [16] was 24.1%. It also gave a viability, T/C (second compound 10 µM, first compound 0.000316 µM) of 101%, a viability, T/C (second compound 10 µM, first compound 0.001 µM) of 84.5% and a viability, T/C (second compound 10 µM, first compound 0.00316 µM) of 82.7%. The viability, T/C (second compound 10 µM, first compound 0.01 µM) was 79.5%, the viability, T/C [17] was 42.6% and the viability, T/C [18] was 19.5%.

With `CC(C)n1nc(-c2ccc3oc(N)nc3c2)c2c(N)ncnc21` + C=CC(=O)N1CCN(c2nc(OCC3CCCN3C)nc3c(F)c(-c4nc(N)cc(C)c4C(F)(F)F)c(Cl)cc23)C(C)C1 the pIC50 (curve of first compound, second compound 0.00316 µM) was 7.70, the pIC50 (curve of first compound, second compound 0.01 µM) was 7.69 and the pIC50 [1] was 7.76. For the same compound, the pIC50 [2] was 7.81, the pIC50 [3] was 7.85 and the pIC50 [4] was 7.79. For the same compound, the viability, T/C (second compound 0.00316 µM, first compound 0.000316 µM) was 97.8%, the viability, T/C (second compound 0.00316 µM, first compound 0.001 µM) was 98.3% and the viability, T/C (second compound 0.00316 µM, first compound 0.00316 µM) was 90.6%. It also gave a viability, T/C (second compound 0.00316 µM, first compound 0.01 µM) of 73.3%, a viability, T/C (second compound 0.00316 µM, first compound 0.0316 µM) of 34.9% and a viability, T/C (second compound 0.00316 µM, first compound 0.1 µM) of 17.7%. For the same compound, the viability, T/C (second compound 0.01 µM, first compound 0.000316 µM) was 88.9%, the viability, T/C (second compound 0.01 µM, first compound 0.001 µM) was 89.2% and the viability, T/C (second compound 0.01 µM, first compound 0.00316 µM) was 81.8%. The viability, T/C (second compound 0.01 µM, first compound 0.01 µM) was 79.3%, the viability, T/C (second compound 0.01 µM, first compound 0.0316 µM) was 32.1% and the viability, T/C (second compound 0.01 µM, first compound 0.1 µM) was 15.2%. It also gave a viability, T/C [19] of 83.8%, a viability, T/C [20] of 74.4% and a viability, T/C [21] of 78.4%. The viability, T/C [22] was 71.4%, the viability, T/C [7] was 27.1% and the viability, T/C [8] was 14.4%. The viability, T/C [23] was 75.6%, the viability, T/C [24] was 78.5% and the viability, T/C [25] was 73.9%. It also gave a viability, T/C [26] of 65.5%, a viability, T/C [9] of 24.7% and a viability, T/C [10] of 14.5%. For the same compound, the viability, T/C [27] was 82.9%, the viability, T/C [28] was 70% and the viability, T/C [29] was 70.9%. It also gave a viability, T/C [30] of 61.6%, a viability, T/C [11] of 25.5% and a viability, T/C [12] of 14.6%. The viability, T/C [31] was 72.6%, the viability, T/C [32] was 77.8% and the viability, T/C [33] was 84.1%. It also gave a viability, T/C [34] of 68.3%, a viability, T/C [13] of 25.2% and a viability, T/C [14] of 14.4%.

With `CCN1CCN(Cc2ccc(Nc3ncc(F)c(-c4cc(F)c5nc(C)n(C(C)C)c5c4)n3)nc2)CC1` the viability, T/C (compound 0.00316 µM) was 104% (2×) and 108% and 116%, the viability, T/C (compound 0.01 µM) was 96.5% [middle of 4 runs] and the viability, T/C (compound 0.0316 µM) was 100% [middle of 4 runs]. The viability, T/C (compound 0.1 µM) was 103% [middle of 4 runs], the viability, T/C (compound 0.316 µM) was 123% [middle of 4 runs] and the viability, T/C (compound 1 µM) was 96.6% [middle of 4 runs]. The pIC50 (curve of compound) was < 6.00.
